{"source": "patent US6881419B2", "about": "“Vitamin formulation for enhancing bone strength” (priority 2002, dated 2005)", "tested_on": "osteoporosis", "experiment": "Case Study-1: bone scan, tolerability and energy in a subject with osteoporosis and rheumatoid arthritis", "conditions": "person, placed on it at diagnosis of osteoporosis", "excerpt": "The exemplary case studies utilize subjects ranging from fifty-one (51) to eighty-three (83) years of age."}
{"smiles": "NCCCC(O)(P(=O)([O-])O)P(=O)(O)O.[Na+]", "note": "[Fosimex]", "values": [{"measurement": "Tolerability (stomach problems which developed into an ulcer)", "result": "unable to tolerate"}]}
